From US8530181B2, “Method of screening for compounds which affect the cleavage of EphA7 byγ-secretase” (Eisai R&D Management Co., Ltd., priority 2007, dated 2013)

Target: T1, γ-secretase (Homo sapiens, UniProt P49768)
T1 construct: 293/EBNA-1 cell strain (Invitrogen) was cultured in 10% FBS (Hyclone)/DMEM (Invitrogen); host or cells: 293/EBNA-1 (HEK293) cells; only the substrate rat EphA7-HA was transfected
Experiment: Analysis of EphA7 processing in EphA7-transfected 293/EBNA-1 cell strain (Western blotting with anti-HA antibody)
Assay type: cell-based
Design: dose or concentration left out as unconfirmed
Conditions: HEK293 (293/EBNA-1) cells expressing rat EphA7-HA; Compound E added to culture broth, cultured one day; compared with cells without Compound E
Procedure: Whether or not EphA7 is a substrate for γ-secretase was evaluated using HEK293 cells expressing a gene encoding EphA7 with an HA tag added to its C-terminus, in the presence of a γ-secretase inhibitor. As the γ-secretase inhibitor, (2S)-2-{[(3,5-difluorophenyl)acetyl]amino}-N-[(3S)-1-methyl-2-oxo-5-phenyl-2,3-dihydro-1H-1,4-benzodiazepin-3-yl]propanamide (hereinafter, sometimes referred to as “Compound E”) (Alexis Biochemicals) was used.
293/EBNA-1 cell strain (Invitrogen) was cultured in 10% FBS (Hyclone)/DMEM (Invitrogen) under 5% CO2 at 37° C., followed by transfection thereinto of the gene encoding rat EphA7 with an HA tag added to its C-terminus using Lipofectamine 2000 (Invitrogen). After one day culture under the same conditions, […] Compound E (γ-secretase inhibitor; Alexis Biochemicals) was added to the culture broth. Cells were cultured for another day under the same conditions. Then, the transfected HEK293 cells were collected with PBS (Sigma) and sonicated with a sonicator (Taitec VP-5S) to disrupt cells. Then, the quantity of protein was determined with Protein Assay Kit (BioRad). […]
First, the substrate for γ-secretase is cut off its extracellular domain by other protease. […] Since reactions proceed very quickly from the first cleavage to the final degradation by proteasome, the substrate is […] when detected by Western blotting.

C[C@H](NC(=O)Cc1cc(F)cc(F)c1)C(=O)N[C@H]1N=C(c2ccccc2)c2ccccc2N(C)C1=O [Compound E, (2S)-2-{[(3,5-difluorophenyl)acetyl]amino}-N-[(3S)-1-methyl-2-oxo-5-phenyl-2,3-dihydro-1H-1,4-benzodiazepin-3-yl]propanamide]
Accumulation of EphA7 C-terminal fragment (CTF, band around 50 kDa) on Western blot, indicating inhibited cleavage of EphA7 by γ-secretase: CTF was accumulated
